Measured values published in patent US20130023574A1, “METHOD FOR GENERATING DATA SET FOR INTEGRATED PROTEOMICS, INTEGRATED PROTEOMICS METHOD USING DATA SET FOR INTEGRATED PROTEOMICS THAT IS GENERATED BY THE GENERATION METHOD, AND METHOD FOR IDENTIFYING CAUSATIVE SUBSTANCE USING SAME” (National University Corporation Kumamoto University, priority 2010, published 2013).

Columns and labels:
U373 cells = test: Chemoresistance to TMZ (rate of living cells, absorbance) in glioma cell line U373; type: cell-based, human
Description: The experiment was carried out by inoculating the glioma cell line on a 96-well plate at the rate of 100 cells per well and adding TMZ at varying concentration ranging from 0 to 20 μM to each well after 5 hours of inoculation. After the plate was incubated for 6 days, absorbance at 450 nm was measured […]. The rate of living cells was expressed by percentage (%) at the defined concentrations of TMZ by setting the concentration rate of 0 μM as a control and as a standard rate of the living cells at the respective TMZ concentrations. […] In other words, it was found in the glioma cell line that the chemoresistance was increased to a higher extent as the variation expression amounts of vimentin were higher.
This experiment was implemented by inoculating a 6-well plate with glioma cells at the rate of 10^6 cells per well, followed by introduction of a vimentin siRNA or a control siRNA into the cells using lipofectamin 2000 after 24 hours of inoculation. […] After the plate was incubated for 6 days, absorbance at 450 nm was measured […]. […]
This experiment was implemented to investigate an influence of the PAK1-induced vimentin phosphorylation on the sensitivity to anticancer agents in the glioma cell line. […] After incubation for 6 days, the portion having absorbance at 420 nm was measured […]. The rate of living cells was expressed by percentage (%) at every set TMZ concentration by setting the TMZ concentration of 0 μM and absorbance for the stimulation with the PAK inhibitor as a standard living cell rate for the respective TMZ concentrations. […]
This experiment was carried out by inoculating a 96-well plate with the glioma cell line at the rate of 100 cells per well, followed by stimulation with 1 μM of Calpi or 1 μM of A23187 after 5 hours of inoculation and addition of TMZ at concentrations varying from 0 μM to 40 μM. After the glioma cell line was incubated for 6 days, the portion having absorbance at 420 nm was measured. […]

calpain = test: Fragmentation of vimentin in glioma cell line U373 by Western blotting; type: cell-based, human
Excerpt: In this experiment, calpain was activated A23187 (a calcium ionophor). After the glioma cell line U373 was stimulated with the calpain inhibitor and then confirmed by Western blotting. […] Therefore, it was confirmed that vimentin is cleaved with calpain.
It is known that, although the N-terminal serine residue of group A can be acetylated, the N-terminal amino acid sequence of the vimentin fragments of groups B, C and D, respectively, can be cleaved by calpain (FIGS. 41d, 45). Therefore, in order to confirm the phosphorylation of vimentin and the cleavage of the N-terminal vimentin with PAK1 and calpain, respectively, a pattern of the vimentin spots with GFP-vimentin (1-464.aa full length) overexpressed in the U373 glioma cell line was analyzed by 2D Western blotting using an anti-C-terminal vimentin antibody. […] Further, the particular fragmentation of vimentin was suppressed with the calpain inhibitor (FIG. 27).

SMILES	resistance to anticancer agents (rate of living cells) (U373 cells; U373 cells, 1 μM A23187, TMZ 20 and 40 μM, 6 days, vs control)	fragmentation of vimentin (calpain)	medicine resistance of the U373 glioma cells (U373 cells; FIG. 33, stimulation plus TMZ)	sensitivity to anticancer agents (rate of living cells) (U373 cells; glioma cell line, 3 μg/ml ephrin A1 or 30 μM serotonin, TMZ 5, 10, 20 and 40 μM, 6 days, vs control)
CNc1ccc2oc(C[C@H]3O[C@@]4(CC[C@H]3C)O[C@H]([C@H](C)C(=O)c3ccc[nH]3)[C@H](C)C[C@H]4C)nc2c1C(=O)O [A23187]	upregulated the resistance to anticancer agents significantly	enhanced the fragmentation		
NCCc1c[nH]c2ccc(O)cc12 [serotonin]			upregulated the medicine resistance	upregulated
